Data published in patent US11566017B2, “Dihydroquinazolinone compound or pharmacologically acceptable salt, and cell growth inhibitor” (RIKEN, priority 2017, dated 2023).

Experiments:
tankyrase 1 (TNKS1) = molecular target: T1, tankyrase 1 (TNKS1) (Homo sapiens, UniProt O95271); assay: Tankyrase inhibitory activity test (ELISA, auto-poly(ADP-ribosyl)ation), tankyrase 1; type: biochemical; settings: Flag tagged tankyrase 1 (1,024-1,327aa, SAM+PARP); read-out: TNKS1 (inhibitory activity against tankyrase 1, IC50)
T1 construct: tankyrase 1 (1,024-1,327aa, SAM+PARP); made in house; host or cells: cell-free protein expression system
T1 sequence (O95271 1024-1327): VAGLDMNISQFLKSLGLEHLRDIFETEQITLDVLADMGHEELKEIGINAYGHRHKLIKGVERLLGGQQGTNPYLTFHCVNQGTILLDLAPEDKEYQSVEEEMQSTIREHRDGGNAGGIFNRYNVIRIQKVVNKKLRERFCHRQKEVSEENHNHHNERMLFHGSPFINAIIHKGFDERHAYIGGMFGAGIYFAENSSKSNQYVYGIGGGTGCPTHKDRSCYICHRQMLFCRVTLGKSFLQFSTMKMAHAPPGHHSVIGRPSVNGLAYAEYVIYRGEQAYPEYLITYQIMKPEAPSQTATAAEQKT
Description: (§1) The enzymatic activity of tankyrase 1 and the enzymatic activity of tankyrase 2 were measured by the ELISA method based on assessment of auto-poly(ADP-ribosyl)ation to evaluate the tankyrase inhibitory activity of the compound prepared in each of Examples (test compound) (inhibitory activity against tankyrase 1 (TNKS1) and inhibitory activity against tankyrase 2 (TNKS2)). First, Flag tagged tankyrase 1 (1,024-1,327aa, SAM+PARP) and tankyrase 2 (613-1,116aa, ANK5+SAM+PARP) were synthesized with a cell-free protein expression system, and diluted with a Tris buffer solution (50 mM Tris-HCl (pH 8.0), 150 mM NaCl, 10% glycerol). 50 μL of the diluted tankyrase 1 or tankyrase 2 was added to a plate with an anti-FLAG M2 monoclonal antibody immobilized thereon (Anti-FLAG High-Sensitivity M2-Coated Plate) (Sigma-Aldrich), and the plate was left standing overnight at 4° C. Thereafter, the plate was washed four times with a PBS (PBST) buffer containing 0.1% Triton X-100. For Example 84, the Anti-FLAG High-Sensitivity M2-Coated Plate was replaced by an immunoplate (Thermo Fisher Scientific), tankyrase 1 or tankyrase 2 was immobilized on the immunoplate, and the immunoplate was then blocked with Blocking One (nacalai tesque), then washed with a PBS (PBST) buffer, and used as the following plate.
(§2) Subsequently, the test compound diluted with an assay buffer (50 mM Tris-HCl (pH 8.0), 4 mM MgCl2, 0.2 mM DTT) (DMSO was used as a control) was added to each well of the plate, and the plate was left standing at room temperature for 10 minutes. Thereafter, a biotin-labeled NAD solution (225 μM NAD, 25 μM 6-Biotin-17-NAD (Travigen, Inc.)) was added and mixed as a donor substrate, and the mixture was reacted at 30° C. for 45 minutes. To blank wells was added distilled water instead of the biotin-labeled NAD solution. After the reaction, the plate was washed with a PBST buffer four times. Thereafter, HRP (horseradish peroxidase)-labeled streptavidin (Travigen, Inc.) was diluted with a PBS buffer by 1,000 times, and added to each well, and the mixture was reacted at room temperature for 20 minutes. The plate was washed with a PBST buffer four times, a chemiluminescent substrate solution TACS-Sapphire (Travigen, Inc.) was then added to each well, the mixture was reacted at room temperature for 20 minutes, and the chemiluminescence intensity was measured using a chemiluminescence measuring apparatus. For Example 84, the streptavidin was diluted by 5,000 times, the chemiluminescent substrate solution TACS-Sapphire was replaced by an ELISA POD substrate TMB solution easy (nacalai tesque), the mixture was reacted at room temperature for 30 minutes, and the chemiluminescence intensity was measured using a chemiluminescence measuring apparatus.
(§3) The residual enzymatic activity in the presence of the test compound was determined from the following expression. On the basis of the residual enzymatic activity at each of multiple concentrations of the test compound, the enzyme inhibitory activity was calculated in terms of a 50%-inhibition concentration (IC50 value) using data analysis software Origin (LightStone Corp.). Residual activity (%)={(chemiluminescence intensity with test compound added)−(chemiluminescence intensity of blank)}/{(chemiluminescence intensity of control)−(chemiluminescence intensity of blank)}

tankyrase 2 (TNKS2) = molecular target: T2, tankyrase 2 (TNKS2) (Homo sapiens, UniProt Q9H2K2); assay: Tankyrase inhibitory activity test (ELISA, auto-poly(ADP-ribosyl)ation), tankyrase 2; type: biochemical; settings: Flag tagged tankyrase 2 (613-1,116aa, ANK5+SAM+PARP); read-out: TNKS2 (inhibitory activity against tankyrase 2, IC50)
T2 construct: tankyrase 2 (613-1,116aa, ANK5+SAM+PARP); made in house; host or cells: cell-free protein expression system
Description: as §1, §2, §3

[1] = tested on: human colorectal cancer cell line COLO-320DM; assay: Cell proliferation inhibitory activity test (Celltiter-Glo); type: cell-based; settings: COLO-320DM cells, 96 hours
Description: The cell proliferation inhibitory activity of the compound, which had been prepared in each of Examples, against the human colorectal cancer cell line COLO-320DM was evaluated by Celltiter-Glo Luminescent Cell Viability Assay (Promega Corporation; G7573). COLO-320DM cells were cultured in RPMI-1640 medium containing 2 mM glutamine (Wako Pure Chemical Industries, Ltd; 189-02025) supplemented with 10% fetal bovine serum. The cultured cells were washed with PBS, and then dissociated with trypsin/EDTA, and a cell solution with 3×10^4 cells/mL was prepared.
Subsequently, the cell solution was seeded in a 96-well microplate (Thermo/Nunc Company; 136101) in an amount of 70 μL per well, and cultured overnight under the condition of 37° C. and 5% CO2. Next day, a test compound solution obtained by diluting the test compound (DMSO solution) with a cell culture medium (final concentration of DMSO was 1%) was added in an amount of 10 μL per well, and the mixture was reacted under the condition of 37° C. and 5% CO2 for 96 hours (a 1% DMSO solution was used as a control). Thereafter, a Celltiter-GloLuminescent Cell Viability Assay reagent (Promega Corporation; G7573) was added in an amount of 80 μL per well, the mixture was stirred with a shaker for 2 minutes while light was blocked with an aluminum foil, and the mixture was incubated at room temperature for 10 minutes.
Thereafter, a luminescence signal was measured with a luminometer (Biotech Company; Synergy). The ratio of cell proliferation in each compound addition group to cell proliferation in a control group containing no test compound solution, where cell proliferation in the control group is 100%, was calculated and the value of a compound concentration necessary for suppressing the amount of residual cells to 50% of that in the control (GI50) was calculated as the cytostatic activity. […] An unevaluated test compound was designated as “NT”.

Row | IC50 (tankyrase 1 (TNKS1)) [nM] | IC50 (tankyrase 2 (TNKS2)) [nM] | GI50 [1] [nM] | SMILES
1 | 5 to 20 | < 5 | 1000 to 10000 | CCc1cccc2c1NC(c1c[nH]nc1-c1ccc(OC)cc1)NC2=O (stereo not drawn) [Example 57, 8-Ethyl-2-[3-(4-methoxyphenyl)-1H-pyrazol-4-yl]-2,3-dihydro-1H-quinazolin-4-one]
2 | 5 to 20 | 5 to 20 | ≥ 10000 | CN1c2ccccc2C(=O)NC1c1n[nH]nc1-c1cccc(-c2ccc(N3CCOCC3)cc2)c1 (stereo not drawn) [Example 62, 1-Methyl-2-[4-[3-(4-morpholin-4-ylphenyl)phenyl]-2H-1,2,3-triazol-5-yl]-2,3-dihydroquinazolin-4-one]
3 | 5 to 20 | 5 to 20 | 1000 to 10000 | COc1ccc(-c2n[nH]nc2C2NC(=O)c3cccc4c3N2CCO4)cc1 (stereo not drawn) [Example 68, 2-[5-(4-Methoxyphenyl)-2H-1,2,3-triazol-4-yl]-10-oxa-1,3-diazatricyclo[7.3.1.0^5,13]trideca-5,7,9(13)-trien-4-one]
4 | 5 to 20 | 5 to 20 | 1000 to 10000 | CCOc1ccc(-c2n[nH]nc2C2NC(=O)c3cccc4c3N2CC4)cc1 (stereo not drawn) [Example 75, 11-[5-(4-Ethoxyphenyl)-2H-1,2,3-triazol-4-yl]-1,10-diazatricyclo[6.3.1.0^4,12]dodeca-4(12),5,7-trien-9-one]
5 | 5 to 20 | 5 to 20 | 1000 to 10000 | COc1ccc(-c2n[nH]cc2C2NC(=O)c3ccccc3N2C)cc1 (stereo not drawn) [Example 83, 2-[5-(4-Methoxyphenyl)-1H-pyrazol-4-yl]-1-methyl-2,3-dihydroquinazolin-4-one]
6 | 20 to 50 | 20 to 50 | ≥ 10000 | CN1c2ccccc2C(=O)NC1c1c[nH]nc1-c1ccc(-c2ccnc3ccccc23)cc1 (stereo not drawn) [Example 40, 1-Methyl-2-[3-(4-quinolin-4-ylphenyl)-1H-pyrazol-4-yl]-2,3-dihydroquinazolin-4-one]
7 | 5 to 20 | 5 to 20 | < 1000 | [2H]C([2H])([2H])Oc1ccc(-c2n[nH]nc2C2NC(=O)c3cccc(C)c3N2)cc1 (stereo not drawn) [Example 77]
8 | 20 to 50 | 20 to 50 | ≥ 10000 | Cc1cccc2c1NC(c1n[nH]nc1-c1ccc(OC(F)F)cc1)NC2=O (stereo not drawn) [Example 73, 2-[4-[4-(Difluoromethoxy)phenyl]-2H-1,2,3-triazol-5-yl]-8-methyl-2,3-dihydro-1H-quinazolin-4-one]
9 | < 5 | 5 to 20 | ≥ 10000 | COc1ccc(-c2n[nH]cc2C2NC(=O)c3cccc4c3N2CC4)cc1 (stereo not drawn) [Example 52, 11-[5-(4-Methoxyphenyl)-1H-pyrazol-4-yl]-1,10-diazatricyclo[6.3.1.0^4,12]dodeca-4(12),5,7-trien-9-one]
10 | 5 to 20 | 5 to 20 | ≥ 10000 | CCOC(=O)COc1ccc(-c2n[nH]nc2C2NC(=O)c3cccc(C)c3N2)cc1 (stereo not drawn) [Example 79]
11 | 5 to 20 | 5 to 20 | 1000 to 10000 | CCCOc1ccc(-c2n[nH]nc2C2NC(=O)c3cccc(C)c3N2)cc1 (stereo not drawn) [Example 74, 8-Methyl-2-[5-(4-propoxyphenyl)-2H-1,2,3-triazol-4-yl]-2,3-dihydro-1H-quinazolin-4-one]
12 | 5 to 20 | < 5 | 1000 to 10000 | COc1ccc(-c2n[nH]nc2C2NC(=O)c3ccccc3N2C)cc1 (stereo not drawn) [Example 58, 2-[5-(4-Methoxyphenyl)-2H-1,2,3-triazol-4-yl]-1-methyl-2,3-dihydroquinazolin-4-one]

The next lines start with the compound.

Row | SMILES | IC50 (tankyrase 1 (TNKS1)) [nM] | IC50 (tankyrase 2 (TNKS2)) [nM] | GI50 [1] [nM]
13 | CN1CCN(c2ccc(-c3cccc(-c4n[nH]cc4C4NC(=O)c5ccccc5N4C)c3)cc2)CC1 (stereo not drawn) [Example 23, 1-Methyl-2-[5-[3-[4-(4-methylpiperazin-1-yl)phenyl]phenyl]-1H-pyrazol-4-yl]-2,3-dihydroquinazolin-4-one] | 20 to 50 | 20 to 50 | 1000 to 10000
14 | CCOC(=O)Cc1ccc(-c2ccc(-c3[nH]ncc3C3NC(=O)c4ccccc4N3C)cc2)cc1 (stereo not drawn) [Example 36, Ethyl 2-[4-[4-[4-(1-methyl-4-oxo-2,3-dihydroquinazolin-2-yl)-1H-pyrazol-5-yl]phenyl]phenyl]acetate] | 20 to 50 | 20 to 50 | ≥ 10000
15 | CCN1c2ccccc2C(=O)NC1c1c[nH]nc1-c1ccc(C(=O)OC)cc1 (stereo not drawn) [Example 13, Methyl 4-[4-(1-ethyl-4-oxo-2,3-dihydroquinazolin-2-yl)-1H-pyrazol-3-yl]benzoate] | 20 to 50 | 20 to 50 | ≥ 10000
16 | CCOc1ccc(-c2n[nH]nc2[C@H]2NC(=O)c3cccc(C)c3N2)cc1 [Example 8, (2R)-2-[5-(4-Ethoxyphenyl)-2H-1,2,3-triazol-4-yl]-8-methyl-2,3-dihydro-1H-quinazolin-4-one] | < 5 | < 5 | < 1000
17 | CN1c2ccccc2C(=O)NC1c1c[nH]nc1-c1ccc(C#N)cc1 (stereo not drawn) [Example 31, 4-[4-(1-Methyl-4-oxo-2,3-dihydroquinazolin-2-yl)-1H-pyrazol-3-yl]benzonitrile] | 5 to 20 | 5 to 20 | ≥ 10000
18 | CN1c2ccccc2C(=O)NC1c1c[nH]nc1-c1cccc(F)c1 (stereo not drawn) [Example 28, 2-[3-(3-Fluorophenyl)-1H-pyrazol-4-yl]-1-methyl-2,3-dihydroquinazolin-4-one] | < 5 | 5 to 20 | 1000 to 10000
19 | CN1c2ccccc2C(=O)NC1c1c[nH]nc1-c1ccc(NC(=O)c2ccccc2)cc1 (stereo not drawn) [Example 4, N-[4-[4-(1-Methyl-4-oxo-2,3-dihydroquinazolin-2-yl)-1H-pirazol-3-yl]phenyl]benzamide] | 5 to 20 | < 5 | ≥ 10000
20 | CN1c2ccccc2C(=O)NC1c1c[nH]nc1-c1ccc(Oc2ccccc2)cc1 (stereo not drawn) [Example 18, 1-Methyl-2-[3-(4-phenoxyphenyl)-1H-pyrazol-4-yl]-2,3-dihydroquinazolin-4-one] | 20 to 50 | < 5 | ≥ 10000
21 | CN(C)c1ccc(-c2cccc(-c3n[nH]cc3C3NC(=O)c4ccccc4N3C)c2)cc1 (stereo not drawn) [Example 35, 2-[5-[3-[4-(Dimethylamino)phenyl]phenyl]-1H-pyrazol-4-yl]-1-methyl-2,3-dihydroquinazolin-4-one] | 20 to 50 | 20 to 50 | ≥ 10000
